Source: patent US5889007A, “10, 11-methanodibenzosuberane derivatives” (priority 1995, dated 1999)
Where two headings read alike, the source gives them in different places. Values belong to the compound of their own block, whether it stands above or below them.

Legend:
[1] = Determination of Stability at Acid pH (HPLC, 0.01N HCl); format: physicochemical; details: 0.01N HCl (pH 2), 37° C.
Procedure: Determination of Stability at Acid pH
Test compounds (15 μg) were dissolved in 3 ml of 0.01N HCl (pH 2) and incubated at 37° C. […] The test compounds and their degradation products were monitored by UV absorption at 240 nm. Disappearance of the parent compound was expressed as a percent peak height relative to time zero, from which t1/2 values were determined graphically, as follows.

[2] = cited from earlier work
[3] = cited from earlier work; remark: listed apart in the source
multidrug resistance [4] = details: anticancer drug potentiator; cited from earlier work
multidrug resistance [5] = details: compared with MS-073; cited from earlier work
drug-resistant malaria = details: in vitro; cited from earlier work

half-life [1]: 2.5 h
SMILES: OC(COc1cccc2ncccc12)CN1CCN([C@@H]2c3ccccc3[C@H]3C[C@H]3c3ccccc32)CC1 (relative stereo) [(2R,S)-anti-5-{3-[4-(10,11-methanodibenzosuber-5-yl)piperazin-1-yl]-2-hydroxypropoxy}quinoline]

half-life [1]: 0.25 h
SMILES: OC(COc1cccc2ncccc12)CN1CCN(C2c3ccccc3CCc3ccccc32)CC1 (stereo not shown) [MS-073]
stability in solution [2]: instability problems in solution | oral bioavailability ([3]; oral): poor oral bioavailability | activity in in vitro testing (multidrug resistance [4]): highly active

Further lines, the compound ahead of its results:

SMILES: OC(COc1cccc2ncccc12)CN1CCN(C2c3ccccc3C3C(c4ccccc42)C3(F)F)CC1 (racemic) [(2R,S)-5-{3-[4-(10,11-difluoromethanodibenzosuber-5-yl)piperazine-1-yl]-2-hydroxypropoxy}quinoline]
half-life [1]: > 72 h

SMILES: OC(COc1cccc2ncccc12)CN1CCN(C2c3ccccc3C3C(Cl)C3c3ccccc32)CC1 [(2R,S)-anti-5-{3-[4-(10,11-chloromethanodibenzosuber-5-yl)piperazine-1-yl]-2-hydroxypropoxy}quinoline]
t1/2 [1]: > 72 h

SMILES: O=C(C(c1ccccc1)c1ccccc1)N1CCN(CC(O)COc2cccc3ncccc23)CC1 (stereo not shown) [MS-209]
oral bioavailability ([3]; in vivo, po): better stability and oral bioavailability | effective doses (multidrug resistance [5]): higher effective doses

SMILES: COc1ccc(CCN(C)CCCC(C#N)(c2ccc(OC)c(OC)c2)C(C)C)cc1OC (stereo not shown) [verapamil]
effect in treating drug-resistant malaria (drug-resistant malaria): effective in vitro
